# According to US20230123601A1, “PHARMACEUTICAL COMBINATION OF ANTIVIRAL AGENTS TARGETING HBV AND/OR AN IMMUNE MODULATOR FOR TREATMENT OF HBV” (priority 2019, published 2023):
# Test system: HBV
# Experiment: HBV-DNA levels in serum of AAV/HBV mice (qPCR)
# Assay type: in vivo, C57BL/6 mice
# Set-up: HBV-DNA levels in serum: unit not given here
# Excerpt: The AAV-HBV mouse model is generated by injecting C57BL/6 mice with recombinant adeno-associated virus harboring a replicable HBV genome (AAV-HBV). The rAAV8-1.3 HBV ayw virus stock was purchased from Beijing FivePlus Molecular Medicine Institute (Beijing, China). The animals (male, aged 4-5 weeks upon arrival) were purchased from SLAC Laboratory Animal Co. Ltd (Shanghai, China), acclimatized in the animal facility for 5-7 days, and then injected with 1×10^11 vector genome of AAV-HBV (diluted in 200 μL of PBS) through the tail vein. Persistence expression of HBV genome can be established after three weeks, with high levels of HBV viral markers including HBV DNA, HBsAg, and HBeAg in mouse serum. With stable HBV viremia and competent immune system of the C57BL/6 mice, the AAV-HBV mouse model was used to evaluate the in vivo anti-HBV efficacy of the compounds. The in-life part of the AAV-HBV study was conducted through contracted service at Covance Pharmaceutical Research and Development (Shanghai) Co. Ltd. (Covance Shanghai) and the post-life analysis using the serum was performed internally at Roche Innovation Center Shanghai (RICS).
# Seven days before compound treatment, blood samples were collected for serum preparation (˜15 μL), and based on HBV DNA, HBsAg levels in serum and body weight, the AAV-HBV infected animals were stratified into the different treatment groups.
# Saline (Group 01) and anti-HBV ASO of CMP ID NO: 15_1 at 1.5 or 7.5 mg/kg were dosed sub subcutaneously once a week during Day 0-49 on Days 0, 7, 14, 21, 28, 35, 42 and 49. TLR7 agonist of CMP ID NO: VI 100 mg/kg was administered by oral gavage once every other day during Day 0-55 (QOD) or once weekly during Day 0-49 on Days 0, 7, 14, 21, 28, 35, 42 and 49 (QW). The animals were weekly bled via retro-orbital sinus for sample collection throughout the study.
# Initially mice serum was diluted by a factor of 10 (1:10) with Phosphate buffered saline (PBS). DNA was extracted using the MagNA Pure 96 (Roche) robot. 50 μl of the diluted serum was mixed in a processing cartridge with 200 ul MagNA Pure 96 external lysis buffer (Roche, Cat. no. 06374913001) and incubated for 10 minutes. DNA was then extracted using the “MagNA Pure 96 DNA and Viral Nucleic Acid Small Volume Kit” (Roche, Cat. no. 06543588001) and the “Viral NA Plasma SV external lysis 2.0” protocol. DNA elution volume was 50 μl.
# Quantification of extracted HBV DNA was performed using a Taqman qPCR machine (ViiA7, life technologies). Each DNA sample was tested in duplicate in the PCR. 5 μl of DNA sample was added to 15 μl of PCR mastermix containing 10 μl TaqMan Gene Expression Master Mix (Applied Biosystems, Cat. no. 4369016), 0.5 μl PrimeTime XL qPCR Primer/Probe (IDT) and 4.5 μl distilled water in a 384 well plate and the PCR was performed using the following settings: UDG Incubation (2 min, 50° C.), Enzyme Activation (10 min, 95° C.) and PCR (40 cycles with 15 sec, 95° for Denaturing and 1 min, 60° C. for annealing and extension). DNA copy numbers were calculated from Ct values based on a HBV plasmid DNA standard curve by the ViiA7 software.
# To evaluate the combination of the anti-HBV ASO and the TLR7 agonist in an in vivo system, a mouse model of chronic HBV infection was used. In the AAV/HBV mouse model described in the Materials and Method a persistent HBV infection is established resulting in expression of viral markers (HBsAg, HBeAg, HBV DNA) detectable in plasma. The effect on these viral markers upon treatment with the anti-HBV ASO of CMP ID NO: 15_1 (table 2, and FIG. 4) dosed at 1.5 mg/kg or 7.5 mg/kg and the TLR7 agonist of CMP ID NO: VI (table 3) dosed with […] every other day (QOD) or once weekly (QW) in monotherapy or in combination has been evaluated.
smiles,measurement,setting,value
"CC[C@H](OC(C)=O)[C@@H]1C[C@@H](O)[C@H](n2c(=O)sc3cnc(N)nc32)O1 [CMP ID NO: VI, [(1S)-1-[(2S,4R,5R)-5-(5-amino-2-oxo-thiazolo[4,5-d]pyrimidin-3-yl)-4-hydroxy-tetrahydrofuran-2-yl]propyl] acetate]",HBV-DNA levels in serum,"TLR7 100 mg/kg QOD, D0",7.69 ± 0.19
same,HBV-DNA levels in serum,"TLR7 100 mg/kg QOD, D7",5.74 ± 0.62
same,HBV-DNA levels in serum,"TLR7 100 mg/kg QOD, D14, 100 mg/kg",5.73 ± 1.2
same,HBV-DNA levels in serum,"TLR7 100 mg/kg QOD, D21",5.55 ± 0.32
same,HBV-DNA levels in serum,"TLR7 100 mg/kg QOD, D28",5.23 ± 1.02
same,HBV-DNA levels in serum,"TLR7 100 mg/kg QOD, D35",4.69 ± 0.71
same,HBV-DNA levels in serum,"TLR7 100 mg/kg QOD, D42",4.72 ± 0.76
same,HBV-DNA levels in serum,"TLR7 100 mg/kg QOD, D49, 100 mg/kg",4.5 ± 0.55
same,HBV-DNA levels in serum,"TLR7 100 mg/kg QOD, D56",4.59 ± 0.65
same,HBV-DNA levels in serum,"TLR7 100 mg/kg QOD, D63, 100 mg/kg",5.3 ± 1.21
same,HBV-DNA levels in serum,"TLR7 100 mg/kg QOD, D70",5.95 ± 1.17
same,HBV-DNA levels in serum,"TLR7 100 mg/kg QOD, D77",6.01 ± 1.17
same,HBV-DNA levels in serum,"TLR7 100 mg/kg QOD, D84",6.26 ± 1.08
same,HBV-DNA levels in serum,"TLR7 100 mg/kg QOD, D91",5.81 ± 1.09
same,HBV-DNA levels in serum,"TLR7 100 mg/kg QOD, D98",6.02 ± 1.17
same,HBV-DNA levels in serum,"TLR7 100 mg/kg QOD, D105",6.23 ± 1.29
same,HBV-DNA levels in serum,"TLR7 100 mg/kg QOD, D111",6.77 ± 0.64
same,HBV-DNA levels in serum,"TLR7 100 mg/kg QW, D0, 100 mg/kg",7.68 ± 0.2
same,HBV-DNA levels in serum,"TLR7 100 mg/kg QW, D7",7.15 ± 0.67
same,HBV-DNA levels in serum,"TLR7 100 mg/kg QW, D14",7.14 ± 0.47
same,HBV-DNA levels in serum,"TLR7 100 mg/kg QW, D21",6.65 ± 0.75
same,HBV-DNA levels in serum,"TLR7 100 mg/kg QW, D28, 100 mg/kg",6.1 ± 1.25
same,HBV-DNA levels in serum,"TLR7 100 mg/kg QW, D35",6.61 ± 0.98
same,HBV-DNA levels in serum,"TLR7 100 mg/kg QW, D42, 100 mg/kg",6.4 ± 0.84
same,HBV-DNA levels in serum,"TLR7 100 mg/kg QW, D49",6.27 ± 0.89
same,HBV-DNA levels in serum,"TLR7 100 mg/kg QW, D56",6.74 ± 0.64
same,HBV-DNA levels in serum,"TLR7 100 mg/kg QW, D63, 100 mg/kg",6.72 ± 0.7
same,HBV-DNA levels in serum,"TLR7 100 mg/kg QW, D70, 100 mg/kg",6.8 ± 0.64
same,HBV-DNA levels in serum,"TLR7 100 mg/kg QW, D77",6.95 ± 0.53
same,HBV-DNA levels in serum,"TLR7 100 mg/kg QW, D84",6.87 ± 0.49
same,HBV-DNA levels in serum,"TLR7 100 mg/kg QW, D91",6.59 ± 0.52
same,HBV-DNA levels in serum,"TLR7 100 mg/kg QW, D98, 100 mg/kg",6.7 ± 0.4
same,HBV-DNA levels in serum,"TLR7 100 mg/kg QW, D105",6.93 ± 0.43
same,HBV-DNA levels in serum,"TLR7 100 mg/kg QW, D111",7.07 ± 0.45
same,"HBV DNA rebound, distance to control group","TLR7 agonist QOD or QW monotherapy, follow-up period",≤ 1 log
same,reduction of HBV-DNA,TLR7 agonist alone,only reached the LLOQ when dosed every other day (QOD)
same,timing of HBV DNA rebound,TLR7 agonist monotherapy,occurred sooner after the end of treatment than it did in the anti-HBV ASO treated groups
same,maximal reduction of HBV-DNA,"TLR7 agonist monotherapy, QW dosing",around 1.5 log
